Assay results from ChEMBL document CHEMBL1201862, “PubChem BioAssay data set” (2004).
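Step 1: Grow cells in 96-well plates. Step 2: Expose to compound for 48 hours at 5 concentrations. Step 3: Interpolate endpoints linearly; if unreached, use highest concentration. Here, GI50 denotes the concentration required for 50% inhibition of growth.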 Calls of active or inactive are those of the source. Cut-off read from the data, not from the text of the source: active = GI50 up to about 1.1 µM and inactive = higher.

How the values were obtained:
Assay in all cases: NCI-60 cell line screen, 48 h
BT-549 = tested on: BT-549
Hs-578T = tested on: Hs-578T
SW-620 = tested on: SW-620
SK-MEL-28 = tested on: SK-MEL-28
SF-268 = tested on: SF-268
OVCAR-3 = tested on: OVCAR-3
HCC 2998 = tested on: HCC 2998
MCF7 = tested on: MCF7
CAKI-1 = tested on: CAKI-1
COLO 205 = tested on: COLO 205
K562 = tested on: K562
T47D = tested on: T47D
PC-3 = tested on: PC-3
LOX IMVI = tested on: LOX IMVI
SK-MEL-2 = tested on: SK-MEL-2
OVCAR-8 = tested on: OVCAR-8
U-251 = tested on: U-251
NCI-H226 = tested on: NCI-H226
HCT-15 = tested on: HCT-15
RPMI-8226 = tested on: RPMI-8226

Row | SMILES | GI50 (BT-549) | GI50 (Hs-578T) | GI50 (SW-620) | GI50 (SK-MEL-28) | GI50 (SF-268) | GI50 (OVCAR-3) | GI50 (HCC 2998) | GI50 (MCF7) | GI50 (CAKI-1) | GI50 (COLO 205) | GI50 (K562) | GI50 (T47D) | GI50 (PC-3) | GI50 (LOX IMVI) | GI50 (SK-MEL-2) | GI50 (OVCAR-8) | GI50 (U-251) | GI50 (NCI-H226) | GI50 (HCT-15) [µM] | GI50 (RPMI-8226)
1 | CO/N=C(\C)CCC#Cc1ccccc1C(=O)OC | > 10 µM (inactive) | > 10 µM (inactive) | > 10 µM (inactive) | > 10 µM (inactive) | > 10 µM (inactive) | > 10 µM (inactive) | > 10 µM (inactive) | > 10 µM (inactive) | > 10 µM (inactive) | > 10 µM (inactive) | > 10 µM (inactive) | > 10 µM (inactive) | > 10 µM (inactive) | > 10 µM (inactive) | > 10 µM (inactive) | > 10 µM (inactive) | > 10 µM (inactive) | > 10 µM (inactive) | > 10 | > 10 µM (inactive)
2 | CCCCCCCCCCCCC(O)C1CCC(C(O)CCCCCCC(O)CCCCCCCC2=CC(C)OC2=O)O1 (stereo not given) | 8.87 µM (inactive) | 4.4 µM (inactive) | 8.3 µM (inactive) | 51.9 µM (inactive) | 6.53 µM (inactive) | 20.8 µM (inactive) | 30.9 µM (inactive) | 0.745 µM (active) | 24.9 µM (inactive) | 19.7 µM (inactive) | 6.55 µM (inactive) | 2.8 µM (inactive) | 31 µM (inactive) | 13 µM (inactive) | 24.6 µM (inactive) | 36.6 µM (inactive) | 61.9 µM (inactive) | 48.2 µM (inactive) | 31.3 | 7.91 µM (inactive)
3 | C[n+]1c(-c2ccc(/C=C/C=N\NC(=O)c3ccc(C(=O)N/N=C\C=C\c4ccc(-c5cn6ccccc6[n+]5C)cc4)cc3)cc2)cn2ccccc21 | 38.2 µM (inactive) | > 100 µM (inactive) | > 100 µM (inactive) | > 100 µM (inactive) | > 100 µM (inactive) | > 64 µM (inactive) | > 54.7 µM (inactive) | > 94.8 µM (inactive) | 38.7 µM (inactive) | > 100 µM (inactive) | 27.5 µM (inactive) | > 48.1 µM (inactive) | > 100 µM (inactive) | > 68.7 µM (inactive) | > 100 µM (inactive) | > 100 µM (inactive) | 44.7 µM (inactive) | > 100 µM (inactive) | > 100 | 38.1 µM (inactive)
4 | Cc1cc2nc3ccc(N(C)C)cc3[s+]c2cc1N [TOLONIUM CHLORIDE] | 11.7 µM (inactive) | 5.12 µM (inactive) | 2.86 µM (inactive) | 13.6 µM (inactive) | 5.38 µM (inactive) | 0.995 µM (active) | 3.7 µM (inactive) | 2.3 µM (inactive) | 23.5 µM (inactive) | 2.97 µM (inactive) | 2.22 µM (inactive) | 5.2 µM (inactive) | 1.58 µM (inactive) | 1.96 µM (inactive) | 3.5 µM (inactive) | 2.16 µM (inactive) | 3.17 µM (inactive) | 8.22 µM (inactive) | 2.99 | 1.48 µM (inactive)
